Test system: SEM cells
Experiment: cell viability relative to DMSO control; higher = less cytotoxic
Conditions: 48 h
Procedure, shortened: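 In 1536-well plates, 5 μl of leukemia cells were seeded per well: 500 cells/well for NOMO1 or SEM and 1000 cells/well for P12-Ichikawa. Each line had first been adapted for at least four passages in each medium. Library compounds in DMSO were pin-dosed at 11 threefold concentrations between 47 μM and 0.79 nM, and CellTiter-Glo One luminescence was read after 48 h at 37°C. Viability is a per-plate percentage relative to DMSO wells, with cell-free wells as background.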

[1] = HPLM + 10% dialyzed FBS, 0.000781 µM
[2] = HPLM + 10% dialyzed FBS, 0.00234 µM
[3] = HPLM + 10% dialyzed FBS, 0.00702 µM
[4] = HPLM + 10% dialyzed FBS, 0.0211 µM
[5] = HPLM + 10% dialyzed FBS, 0.0632 µM
[6] = HPLM + 10% dialyzed FBS, 0.19 µM
[7] = HPLM + 10% dialyzed FBS, 0.569 µM
[8] = HPLM + 10% dialyzed FBS, 1.71 µM
[9] = HPLM + 10% dialyzed FBS, 5.12 µM
[10] = HPLM + 10% dialyzed FBS, 15.4 µM
[11] = HPLM + 10% dialyzed FBS, 46.1 µM
[12] = RPMI 5 mM glucose + 10% FBS, 0.000781 µM
[13] = RPMI 5 mM glucose + 10% FBS, 0.00234 µM
[14] = RPMI 5 mM glucose + 10% FBS, 0.00702 µM
[15] = RPMI 5 mM glucose + 10% FBS, 0.0211 µM
[16] = RPMI 5 mM glucose + 10% FBS, 0.0632 µM
[17] = RPMI 5 mM glucose + 10% FBS, 0.19 µM
[18] = RPMI 5 mM glucose + 10% FBS, 0.569 µM
[19] = RPMI 5 mM glucose + 10% FBS, 1.71 µM
[20] = RPMI 5 mM glucose + 10% FBS, 5.12 µM
[21] = RPMI 5 mM glucose + 10% FBS, 15.4 µM
[22] = RPMI 5 mM glucose + 10% FBS, 46.1 µM
[23] = RPMI 5 mM glucose + 10% dialyzed FBS, 0.000781 µM
[24] = RPMI 5 mM glucose + 10% dialyzed FBS, 0.00234 µM
[25] = RPMI 5 mM glucose + 10% dialyzed FBS, 0.00702 µM
[26] = RPMI 5 mM glucose + 10% dialyzed FBS, 0.0211 µM
[27] = RPMI 5 mM glucose + 10% dialyzed FBS, 0.0632 µM
[28] = RPMI 5 mM glucose + 10% dialyzed FBS, 0.19 µM
[29] = RPMI 5 mM glucose + 10% dialyzed FBS, 0.569 µM
[30] = RPMI 5 mM glucose + 10% dialyzed FBS, 1.71 µM
[31] = RPMI 5 mM glucose + 10% dialyzed FBS, 5.12 µM
[32] = RPMI 5 mM glucose + 10% dialyzed FBS, 15.4 µM
[33] = RPMI 5 mM glucose + 10% dialyzed FBS, 46.1 µM

CCN(CC)CCCCNc1ncc2c(n1)N(C)C(=O)N(c1c(Cl)c(OC)cc(OC)c1Cl)C2
cell viability [1]: 99.2% | cell viability [2]: 110% | cell viability [3]: 110% | cell viability [4]: 111% | cell viability [5]: 119% | cell viability [6]: 111% | cell viability [7]: 117% | cell viability [8]: 114% | cell viability [9]: 99.2% | cell viability [10]: 48.3% | cell viability [11]: 11.9% | cell viability [12]: 109% | cell viability [13]: 112% | cell viability [14]: 117% | cell viability [15]: 125% | cell viability [16]: 119% | cell viability [17]: 106% | cell viability [18]: 126% | cell viability [19]: 109% | cell viability [20]: 104% | cell viability [21]: 44.4% | cell viability [22]: 13.2% | cell viability [23]: 125% | cell viability [24]: 118% | cell viability [25]: 107% | cell viability [26]: 114% | cell viability [27]: 116% | cell viability [28]: 116% | cell viability [29]: 129% | cell viability [30]: 104% | cell viability [31]: 101% | cell viability [32]: 52.3% | cell viability [33]: 16.9%

CC[C@@]1(O)C(=O)OCC/2=C1/C=C3\N(CC4=CC5=CC(=CC=C5N=C34)O)C2=O
cell viability [1]: 120% | cell viability [2]: 128% | cell viability [3]: 120% | cell viability [4]: 104% | cell viability [5]: 58.8% | cell viability [6]: 20.9% | cell viability [7]: 18.9% | cell viability [8]: 8.26% | cell viability [9]: 7.73% | cell viability [10]: 6.07% | cell viability [11]: 5.91% | cell viability [12]: 79.1% | cell viability [13]: 81.5% | cell viability [14]: 73% | cell viability [15]: 70.2% | cell viability [16]: 22.6% | cell viability [17]: 11.6% | cell viability [18]: 9.45% | cell viability [19]: 6.47% | cell viability [20]: 5.43% | cell viability [21]: 3.87% | cell viability [22]: 4.1% | cell viability [23]: 99.6% | cell viability [24]: 112% | cell viability [25]: 114% | cell viability [26]: 93.1% | cell viability [27]: 43% | cell viability [28]: 17.9% | cell viability [29]: 13% | cell viability [30]: 7.18% | cell viability [31]: 6.51% | cell viability [32]: 6.28% | cell viability [33]: 4.96%

CC(C)c1cnn2c(NCc3ccccc3)cc(NCCCCCCN)nc12
cell viability [1]: 121% | cell viability [2]: 126% | cell viability [3]: 121% | cell viability [4]: 117% | cell viability [5]: 111% | cell viability [6]: 111% | cell viability [7]: 119% | cell viability [8]: 120% | cell viability [9]: 118% | cell viability [10]: 106% | cell viability [11]: 84.9% | cell viability [12]: 89.8% | cell viability [13]: 77.3% | cell viability [14]: 105% | cell viability [15]: 88.1% | cell viability [16]: 82.3% | cell viability [17]: 93.9% | cell viability [18]: 83.5% | cell viability [19]: 96.9% | cell viability [20]: 88.2% | cell viability [21]: 76.3% | cell viability [22]: 77.4% | cell viability [23]: 108% | cell viability [24]: 109% | cell viability [25]: 120% | cell viability [26]: 121% | cell viability [27]: 98.4% | cell viability [28]: 117% | cell viability [29]: 112% | cell viability [30]: 115% | cell viability [31]: 96.4% | cell viability [32]: 114% | cell viability [33]: 81.8%

CNCc1ccc(-c2[nH]c3cc(F)cc4c3c2CCNC4=O)cc1
cell viability [1]: 101% | cell viability [2]: 103% | cell viability [3]: 126% | cell viability [4]: 148% | cell viability [5]: 122% | cell viability [6]: 118% | cell viability [7]: 117% | cell viability [8]: 133% | cell viability [9]: 155% | cell viability [10]: 141% | cell viability [11]: 109% | cell viability [12]: 106% | cell viability [13]: 118% | cell viability [14]: 128% | cell viability [15]: 123% | cell viability [16]: 134% | cell viability [17]: 127% | cell viability [18]: 143% | cell viability [19]: 152% | cell viability [20]: 163% | cell viability [21]: 153% | cell viability [22]: 128% | cell viability [23]: 94.5% | cell viability [24]: 110% | cell viability [25]: 115% | cell viability [26]: 115% | cell viability [27]: 95.7% | cell viability [28]: 130% | cell viability [29]: 126% | cell viability [30]: 136% | cell viability [31]: 115% | cell viability [32]: 120% | cell viability [33]: 106%

CN[C@@H]1Cc2cccc3[nH]c(=O)n(c23)C1
cell viability [1]: 108% | cell viability [2]: 119% | cell viability [3]: 105% | cell viability [4]: 121% | cell viability [5]: 98.8% | cell viability [6]: 100% | cell viability [7]: 110% | cell viability [8]: 103% | cell viability [9]: 104% | cell viability [10]: 92.8% | cell viability [11]: 95.4%

COc1cc2nc(N3CCN(C(=O)C4CCCO4)CC3)nc(N)c2cc1OC (stereo not drawn)
cell viability [1]: 74.1% | cell viability [2]: 117% | cell viability [3]: 97% | cell viability [4]: 118% | cell viability [5]: 109% | cell viability [6]: 117% | cell viability [7]: 122% | cell viability [8]: 114% | cell viability [9]: 116% | cell viability [10]: 119% | cell viability [11]: 113% | cell viability [23]: 84.6% | cell viability [24]: 125% | cell viability [25]: 110% | cell viability [26]: 124% | cell viability [27]: 134% | cell viability [28]: 142% | cell viability [29]: 27.4% | cell viability [30]: 134% | cell viability [31]: 162% | cell viability [32]: 148% | cell viability [33]: 128%

C[S+](=O)([O-])c1cccc(CNc2nc(Nc3ccc4c(c3)CCC(=O)N4)ncc2C(F)(F)F)c1
cell viability [12]: 112% | cell viability [13]: 126% | cell viability [14]: 119% | cell viability [15]: 127% | cell viability [16]: 105% | cell viability [17]: 125% | cell viability [18]: 109% | cell viability [19]: 71.5% | cell viability [20]: 63.1% | cell viability [21]: 30.6% | cell viability [22]: 8.79% | cell viability [23]: 111% | cell viability [24]: 114% | cell viability [25]: 98.4% | cell viability [26]: 110% | cell viability [27]: 101% | cell viability [28]: 94.9% | cell viability [29]: 87.3% | cell viability [30]: 74.4% | cell viability [31]: 49.9% | cell viability [32]: 20.5% | cell viability [33]: 4.38%

Nc1cc(C(F)(F)F)c(-c2cc(N3CCOCC3)nc(N3CCOCC3)n2)cn1
cell viability [1]: 118% | cell viability [2]: 121% | cell viability [3]: 99% | cell viability [4]: 113% | cell viability [5]: 113% | cell viability [6]: 88.5% | cell viability [7]: 72.2% | cell viability [8]: 43.4% | cell viability [9]: 14% | cell viability [10]: 6.54% | cell viability [11]: 5.09% | cell viability [12]: 88.9% | cell viability [13]: 89.2% | cell viability [14]: 88.1% | cell viability [15]: 102% | cell viability [16]: 90% | cell viability [17]: 64.2% | cell viability [18]: 75.6% | cell viability [19]: 27.4% | cell viability [20]: 6.68% | cell viability [21]: 3.92% | cell viability [22]: 2.34% | cell viability [23]: 113% | cell viability [24]: 131% | cell viability [25]: 121% | cell viability [26]: 123% | cell viability [27]: 118% | cell viability [28]: 91.1% | cell viability [29]: 74.1% | cell viability [30]: 37.6% | cell viability [31]: 14.6% | cell viability [32]: 5.59% | cell viability [33]: 3.9%

C[S+](=O)([O-])c1ccc(C(=O)Nc2ccc(Cl)c(-c3ccccn3)c2)c(Cl)c1
cell viability [1]: 97.9% | cell viability [2]: 98.7% | cell viability [3]: 129% | cell viability [4]: 116% | cell viability [5]: 126% | cell viability [6]: 127% | cell viability [7]: 131% | cell viability [8]: 122% | cell viability [9]: 140% | cell viability [10]: 126% | cell viability [11]: 144% | cell viability [12]: 100% | cell viability [13]: 117% | cell viability [14]: 129% | cell viability [15]: 123% | cell viability [16]: 126% | cell viability [17]: 150% | cell viability [18]: 121% | cell viability [19]: 122% | cell viability [20]: 153% | cell viability [21]: 25.2% | cell viability [22]: 139% | cell viability [23]: 104% | cell viability [24]: 98.5% | cell viability [25]: 136% | cell viability [26]: 120% | cell viability [27]: 131% | cell viability [28]: 111% | cell viability [29]: 138% | cell viability [30]: 142% | cell viability [31]: 127% | cell viability [32]: 140% | cell viability [33]: 134%
